Where two headings read alike, the source gives them in different places.
Tests used:
Test in all cases: biochemical
Type in all cases: binding
panel of 442 kinases [1] = molecular target: T1, panel of 442 kinases (Homo sapiens, UniProt Q8NG66); settings: kinase NEK11; for remaining activity at 1 µM: read-out: % of control at 1 µM
T1 construct: purchased Ambit Biosciences (scanMAXX KINOMEscan)
T1 sequence (Q8NG66 1-645): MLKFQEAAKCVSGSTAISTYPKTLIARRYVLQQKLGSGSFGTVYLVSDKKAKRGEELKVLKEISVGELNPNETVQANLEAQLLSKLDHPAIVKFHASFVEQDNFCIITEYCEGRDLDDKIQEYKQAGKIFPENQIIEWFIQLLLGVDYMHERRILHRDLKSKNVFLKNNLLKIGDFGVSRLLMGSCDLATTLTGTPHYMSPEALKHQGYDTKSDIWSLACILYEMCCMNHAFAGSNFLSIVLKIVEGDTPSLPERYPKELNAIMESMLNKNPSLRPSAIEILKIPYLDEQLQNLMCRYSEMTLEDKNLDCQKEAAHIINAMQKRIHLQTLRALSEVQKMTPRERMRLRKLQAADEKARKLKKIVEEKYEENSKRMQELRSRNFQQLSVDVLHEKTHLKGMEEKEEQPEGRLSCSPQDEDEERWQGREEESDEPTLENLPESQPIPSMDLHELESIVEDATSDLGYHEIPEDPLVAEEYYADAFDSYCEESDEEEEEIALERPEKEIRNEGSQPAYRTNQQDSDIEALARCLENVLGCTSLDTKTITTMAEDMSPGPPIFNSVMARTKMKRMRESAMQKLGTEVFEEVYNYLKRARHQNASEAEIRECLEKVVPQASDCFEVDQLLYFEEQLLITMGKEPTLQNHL

panel of 442 kinases [2] = molecular target: T2, panel of 442 kinases (Homo sapiens, UniProt O75582)
T2 construct: purchased Ambit Biosciences (scanMAXX KINOMEscan)

panel of 442 kinases [3] = molecular target: T3, panel of 442 kinases (Homo sapiens, UniProt P27037); settings: ACVR2A; for remaining activity at 1 µM: read-out: % of control at 1 µM
T3 construct: purchased Ambit Biosciences (scanMAXX KINOMEscan)

panel of 442 kinases [4] = molecular target: T4, panel of 442 kinases (Homo sapiens, UniProt Q9Y4K4); settings: kinase MAP4K5; for remaining activity at 1 µM: read-out: % of control at 1 µM
T4 construct: purchased Ambit Biosciences (scanMAXX KINOMEscan)

panel of 442 kinases [5] = molecular target: T5, panel of 442 kinases (Homo sapiens, UniProt Q9NYL2); settings: kinase ZAK; for remaining activity at 1 µM: read-out: ZAK (% of control at 1 µM)
T5 construct: purchased Ambit Biosciences (scanMAXX KINOMEscan)

panel of 442 kinases [6] = molecular target: T6, panel of 442 kinases (Homo sapiens, UniProt Q9UKE5); settings: kinase TNIK; for remaining activity at 1 µM: read-out: TNIK (% of control at 1 µM)
T6 construct: purchased Ambit Biosciences (scanMAXX KINOMEscan)

panel of 442 kinases [7] = molecular target: T7, panel of 442 kinases (Homo sapiens, UniProt Q9UF33); settings: EPHA6; for remaining activity at 1 µM: read-out: % of control at 1 µM
T7 construct: purchased Ambit Biosciences (scanMAXX KINOMEscan)
T7 sequence (Q9UF33 23-1036): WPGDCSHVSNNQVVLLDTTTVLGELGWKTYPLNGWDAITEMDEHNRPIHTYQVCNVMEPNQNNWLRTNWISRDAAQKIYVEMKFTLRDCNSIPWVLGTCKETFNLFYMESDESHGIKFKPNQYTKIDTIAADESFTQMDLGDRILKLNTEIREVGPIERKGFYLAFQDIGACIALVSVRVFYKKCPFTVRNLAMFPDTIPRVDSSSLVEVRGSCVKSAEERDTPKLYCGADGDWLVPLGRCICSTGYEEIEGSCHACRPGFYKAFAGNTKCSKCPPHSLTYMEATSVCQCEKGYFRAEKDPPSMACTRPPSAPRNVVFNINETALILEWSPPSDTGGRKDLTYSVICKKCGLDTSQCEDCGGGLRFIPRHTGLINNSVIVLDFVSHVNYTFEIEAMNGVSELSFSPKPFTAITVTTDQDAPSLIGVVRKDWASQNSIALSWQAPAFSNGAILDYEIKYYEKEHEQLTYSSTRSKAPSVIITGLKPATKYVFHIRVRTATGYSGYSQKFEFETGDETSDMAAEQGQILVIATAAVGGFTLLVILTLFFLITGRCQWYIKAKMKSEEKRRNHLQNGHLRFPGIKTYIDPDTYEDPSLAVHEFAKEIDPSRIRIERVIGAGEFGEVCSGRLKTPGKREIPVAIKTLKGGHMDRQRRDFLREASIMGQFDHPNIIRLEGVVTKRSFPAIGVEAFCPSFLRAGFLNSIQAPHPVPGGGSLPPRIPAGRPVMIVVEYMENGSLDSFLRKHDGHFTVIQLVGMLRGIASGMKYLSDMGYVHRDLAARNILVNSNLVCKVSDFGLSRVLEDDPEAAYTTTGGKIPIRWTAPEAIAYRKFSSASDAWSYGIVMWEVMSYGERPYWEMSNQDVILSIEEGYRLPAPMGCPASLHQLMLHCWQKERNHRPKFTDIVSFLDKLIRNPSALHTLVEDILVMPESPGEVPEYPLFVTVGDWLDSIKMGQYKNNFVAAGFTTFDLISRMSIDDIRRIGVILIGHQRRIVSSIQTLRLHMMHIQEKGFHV

[8] = 10 µM, read-out: % of control at 10 µM
[9] = kinase RPS6KA5(Kin.Dom.1-N-terminal), read-out: RPS6KA5(Kin.Dom.1-N-terminal) (% of control at 1 µM)
[10] = kinase RPS6KA5(Kin.Dom.2-C-terminal), read-out: RPS6KA5(Kin.Dom.2-C-terminal) (% of control at 1 µM)

T6 sequence (Q9UKE5 whole entry): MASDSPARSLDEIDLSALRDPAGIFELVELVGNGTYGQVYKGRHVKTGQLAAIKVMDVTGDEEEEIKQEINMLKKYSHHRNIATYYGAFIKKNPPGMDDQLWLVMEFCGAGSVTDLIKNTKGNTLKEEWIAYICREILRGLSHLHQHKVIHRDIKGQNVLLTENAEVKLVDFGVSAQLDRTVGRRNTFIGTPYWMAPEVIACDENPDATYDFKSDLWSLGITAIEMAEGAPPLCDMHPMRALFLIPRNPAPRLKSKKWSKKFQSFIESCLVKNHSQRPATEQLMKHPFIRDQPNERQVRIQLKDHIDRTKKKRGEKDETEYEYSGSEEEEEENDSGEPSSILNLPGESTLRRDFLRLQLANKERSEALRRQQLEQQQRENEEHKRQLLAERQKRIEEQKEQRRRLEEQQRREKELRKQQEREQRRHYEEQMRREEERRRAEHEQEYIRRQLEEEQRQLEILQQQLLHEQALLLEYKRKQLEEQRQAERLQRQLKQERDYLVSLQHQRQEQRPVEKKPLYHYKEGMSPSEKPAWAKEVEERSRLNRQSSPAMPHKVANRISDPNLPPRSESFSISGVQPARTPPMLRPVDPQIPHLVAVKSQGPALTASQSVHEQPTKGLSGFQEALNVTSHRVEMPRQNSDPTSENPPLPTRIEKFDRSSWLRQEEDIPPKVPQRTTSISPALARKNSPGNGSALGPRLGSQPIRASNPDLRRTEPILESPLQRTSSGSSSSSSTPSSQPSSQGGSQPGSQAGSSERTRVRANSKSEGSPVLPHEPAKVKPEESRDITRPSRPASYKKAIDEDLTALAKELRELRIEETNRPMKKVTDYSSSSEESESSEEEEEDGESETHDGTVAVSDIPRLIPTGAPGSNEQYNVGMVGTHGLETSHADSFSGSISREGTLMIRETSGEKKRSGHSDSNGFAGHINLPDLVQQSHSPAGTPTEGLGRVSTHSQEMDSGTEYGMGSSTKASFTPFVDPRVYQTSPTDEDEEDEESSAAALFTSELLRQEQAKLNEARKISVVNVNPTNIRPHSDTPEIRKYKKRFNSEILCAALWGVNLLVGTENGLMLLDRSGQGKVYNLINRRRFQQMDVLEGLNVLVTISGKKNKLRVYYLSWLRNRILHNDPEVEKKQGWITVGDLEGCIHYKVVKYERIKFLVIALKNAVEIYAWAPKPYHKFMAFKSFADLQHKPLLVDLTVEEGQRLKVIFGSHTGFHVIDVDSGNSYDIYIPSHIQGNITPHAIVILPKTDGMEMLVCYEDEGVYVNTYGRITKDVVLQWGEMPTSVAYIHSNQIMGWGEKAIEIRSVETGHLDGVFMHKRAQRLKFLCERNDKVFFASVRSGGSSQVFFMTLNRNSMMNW
T2 sequence (O75582 whole entry): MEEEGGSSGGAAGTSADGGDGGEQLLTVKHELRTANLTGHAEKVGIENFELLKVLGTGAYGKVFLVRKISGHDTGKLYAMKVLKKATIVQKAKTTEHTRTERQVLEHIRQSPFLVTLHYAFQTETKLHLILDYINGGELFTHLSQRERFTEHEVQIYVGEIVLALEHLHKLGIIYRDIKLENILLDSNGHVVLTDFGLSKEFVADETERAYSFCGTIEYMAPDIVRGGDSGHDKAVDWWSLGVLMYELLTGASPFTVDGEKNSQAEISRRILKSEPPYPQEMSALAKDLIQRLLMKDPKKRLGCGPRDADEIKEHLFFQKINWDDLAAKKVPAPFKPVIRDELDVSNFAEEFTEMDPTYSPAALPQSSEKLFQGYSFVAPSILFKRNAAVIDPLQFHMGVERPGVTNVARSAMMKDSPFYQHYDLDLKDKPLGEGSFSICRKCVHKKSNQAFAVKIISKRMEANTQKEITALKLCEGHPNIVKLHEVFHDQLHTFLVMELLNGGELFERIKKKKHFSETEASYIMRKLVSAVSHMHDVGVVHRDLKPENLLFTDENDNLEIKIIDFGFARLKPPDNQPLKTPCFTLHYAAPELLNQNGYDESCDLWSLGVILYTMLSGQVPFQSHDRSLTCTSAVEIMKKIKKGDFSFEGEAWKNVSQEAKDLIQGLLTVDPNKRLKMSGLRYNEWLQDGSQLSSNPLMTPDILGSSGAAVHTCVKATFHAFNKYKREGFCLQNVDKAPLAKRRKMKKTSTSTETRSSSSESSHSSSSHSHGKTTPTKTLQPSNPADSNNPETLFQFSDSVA
T4 sequence (Q9Y4K4 whole entry): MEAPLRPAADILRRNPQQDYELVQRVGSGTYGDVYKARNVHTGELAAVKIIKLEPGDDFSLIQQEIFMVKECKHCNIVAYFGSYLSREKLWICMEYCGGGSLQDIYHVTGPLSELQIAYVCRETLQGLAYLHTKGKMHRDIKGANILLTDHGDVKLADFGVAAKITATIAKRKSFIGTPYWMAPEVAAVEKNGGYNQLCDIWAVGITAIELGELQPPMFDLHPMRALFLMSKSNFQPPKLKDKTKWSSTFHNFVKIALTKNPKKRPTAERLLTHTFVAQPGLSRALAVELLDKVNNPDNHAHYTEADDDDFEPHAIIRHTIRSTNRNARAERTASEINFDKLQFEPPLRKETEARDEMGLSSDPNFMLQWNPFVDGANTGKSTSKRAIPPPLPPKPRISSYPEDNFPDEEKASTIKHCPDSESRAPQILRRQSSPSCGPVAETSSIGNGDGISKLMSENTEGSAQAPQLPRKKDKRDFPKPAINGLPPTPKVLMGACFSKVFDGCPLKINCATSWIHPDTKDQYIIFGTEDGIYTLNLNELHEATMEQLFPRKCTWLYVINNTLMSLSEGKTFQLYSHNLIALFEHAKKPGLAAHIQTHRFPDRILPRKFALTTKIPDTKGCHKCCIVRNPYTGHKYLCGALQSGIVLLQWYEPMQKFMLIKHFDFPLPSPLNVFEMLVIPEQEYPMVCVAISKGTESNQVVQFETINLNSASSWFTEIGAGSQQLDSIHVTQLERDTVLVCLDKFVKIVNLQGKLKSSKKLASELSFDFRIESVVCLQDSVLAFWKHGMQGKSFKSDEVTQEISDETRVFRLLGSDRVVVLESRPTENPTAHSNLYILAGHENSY
T5 sequence (Q9NYL2 whole entry): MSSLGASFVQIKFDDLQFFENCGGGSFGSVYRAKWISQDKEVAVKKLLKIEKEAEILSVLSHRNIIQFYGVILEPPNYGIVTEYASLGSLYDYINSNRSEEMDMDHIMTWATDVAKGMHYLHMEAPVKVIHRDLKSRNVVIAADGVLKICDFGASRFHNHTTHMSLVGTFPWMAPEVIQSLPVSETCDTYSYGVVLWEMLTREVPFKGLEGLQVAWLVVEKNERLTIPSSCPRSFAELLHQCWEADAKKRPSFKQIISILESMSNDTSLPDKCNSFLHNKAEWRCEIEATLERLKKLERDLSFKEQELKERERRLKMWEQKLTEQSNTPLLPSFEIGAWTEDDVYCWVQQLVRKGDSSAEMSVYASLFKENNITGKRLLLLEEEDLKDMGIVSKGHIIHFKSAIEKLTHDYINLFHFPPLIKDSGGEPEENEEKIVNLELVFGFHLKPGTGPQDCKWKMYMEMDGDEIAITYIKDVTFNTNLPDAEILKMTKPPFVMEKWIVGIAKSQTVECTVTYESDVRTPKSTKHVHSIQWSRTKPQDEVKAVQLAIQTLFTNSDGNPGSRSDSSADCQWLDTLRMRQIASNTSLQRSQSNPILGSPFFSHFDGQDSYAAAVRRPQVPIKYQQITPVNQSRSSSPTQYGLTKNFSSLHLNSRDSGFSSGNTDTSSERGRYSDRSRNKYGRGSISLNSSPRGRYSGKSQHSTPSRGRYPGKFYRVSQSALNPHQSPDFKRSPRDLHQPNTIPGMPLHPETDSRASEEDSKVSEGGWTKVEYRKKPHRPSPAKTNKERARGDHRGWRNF
T3 sequence (P27037 20-513): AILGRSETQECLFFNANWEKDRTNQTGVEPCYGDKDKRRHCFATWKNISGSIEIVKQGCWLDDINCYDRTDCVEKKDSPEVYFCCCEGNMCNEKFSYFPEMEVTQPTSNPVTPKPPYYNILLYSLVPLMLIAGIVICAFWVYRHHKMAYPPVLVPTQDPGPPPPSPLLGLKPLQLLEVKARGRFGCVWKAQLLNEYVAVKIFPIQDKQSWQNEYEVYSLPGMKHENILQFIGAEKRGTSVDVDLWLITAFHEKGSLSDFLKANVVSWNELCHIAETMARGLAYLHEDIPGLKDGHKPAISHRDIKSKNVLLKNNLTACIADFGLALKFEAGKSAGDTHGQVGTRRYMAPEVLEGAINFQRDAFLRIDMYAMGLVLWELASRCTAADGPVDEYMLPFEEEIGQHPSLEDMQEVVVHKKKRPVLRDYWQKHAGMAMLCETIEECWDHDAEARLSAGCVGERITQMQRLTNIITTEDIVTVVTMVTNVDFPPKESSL

| SMILES | remaining activity at 1 µM (panel of 442 kinases [1]) | remaining activity at 10 µM (panel of 442 kinases [1]; [8]) | remaining activity at 1 µM (panel of 442 kinases [2]; [9]) | remaining activity at 10 µM (panel of 442 kinases [2]; kinase RPS6KA5(Kin.Dom.1-N-terminal), read-out: RPS6KA5(Kin.Dom.1-N-terminal) (% of control at 10 µM)) | remaining activity at 1 µM (panel of 442 kinases [2]; [10]) | remaining activity at 10 µM (panel of 442 kinases [2]; kinase RPS6KA5(Kin.Dom.2-C-terminal), read-out: RPS6KA5(Kin.Dom.2-C-terminal) (% of control at 10 µM)) | remaining activity at 1 µM (panel of 442 kinases [3]) | remaining activity at 10 µM (panel of 442 kinases [3]; [8]) | remaining activity at 1 µM (panel of 442 kinases [4]) | remaining activity at 10 µM (panel of 442 kinases [4]; [8]) | remaining activity at 1 µM (panel of 442 kinases [5]) | remaining activity at 10 µM (panel of 442 kinases [5]; 10 µM, read-out: ZAK (% of control at 10 µM)) | remaining activity at 1 µM (panel of 442 kinases [6]) | remaining activity at 10 µM (panel of 442 kinases [6]; 10 µM, read-out: TNIK (% of control at 10 µM)) | remaining activity at 1 µM (panel of 442 kinases [7]) | remaining activity at 10 µM (panel of 442 kinases [7]; [8]) |
| --- | --- | --- | --- | --- | --- | --- | --- | --- | --- | --- | --- | --- | --- | --- | --- | --- |
| Nc1cc(C(F)(F)F)c(-c2cc(N3CCOCC3)nc(N3CCOCC3)n2)cn1 [Buparlisib] | 74% | 96% | 100% | 100% | 74% | 96% | 100% | 100% | 96% | 100% | 85% | 90% | 100% | 100% | 93% | 100% |
| Cn1c(=O)n(-c2ccc(C(C)(C)C#N)cc2)c2c3cc(-c4cnc5ccccc5c4)ccc3ncc21 [Dactolisib, 2-methyl-2-[4-(3-methyl-2-oxo-8-quinolin-3-yl-2,3-dihydroimidazo[4,5-c]quinolin-1-yl)-phenyl] propionitrile] | 81% | – | 64% | – | 100% | – | 89% | – | 55% | – | 55% | – | – | – | 94% | – |
| COc1ncc(-c2ccc3nccc(-c4ccnnc4)c3c2)cc1NS(=O)(=O)c1ccc(F)cc1F [Omipalisib] | 100% | – | 100% | – | 100% | – | 100% | – | 100% | – | 81% | – | 100% | – | 100% | – |
| FC(F)c1nc2ccccc2n1-c1nc(N2CCOCC2)nc(N2CCOCC2)n1 [ZSTK474, 2-(difluoromethyl)-1-[4,6-di(4-morpholinyl)-1,3,5-triazin-2-yl]-1H-benzimidazole] | 82% | – | 81% | – | 100% | – | 100% | – | 99% | – | 92% | – | 100% | – | 88% | – |
